Experimental data as given in article PMC8617507 (Proceedings of the National Academy of Sciences of the …, 2021).
“And” between values parts separate entries of the source, which are not always exact repeats. Equal values may be shown once. Read-outs that look alike come from different tables or passages of the source.

Key:
B. subtilis GFP-MinD = assay: MinD delocalization studies; assay type: cell-based, Bacillus subtilis; conditions: within 5 min
S. pneumoniae = assay: MIC, broth microdilution; assay type: cell-based, Streptococcus pneumoniae; conditions: for MIC: Streptococcus pneumoniae, S. pneumoniae T4 in supplemented C+Y medium, most abundant MIC, Table 2; for reduction in MIC in comparison to THCz-1: S. pneumoniae T4, vs. original screening hit THCz-1
[1] = tested on: Lung epithelial A549 cells; assay: cells; conditions: Homo sapiens
[2] = tested on: Lung epithelial A549 cells
[3] = tested on: B. subtilis PliaI-lux LiaRS bioreporter; assay: Luciferase reporter assay; assay type: cell-based, Bacillus subtilis; conditions: 2 µg/mL THCz-1, 128 µg/mL THCz-5, 8 µg/mL THCz-39, 4 µg/mL THCz-40
[4] = tested on: B. subtilis PypuA-lacZ (cell wall) bioreporter; assay: β-Galactosidase reporter assay, cell wall reporter; assay type: cell-based, Bacillus subtilis; conditions: 10 µg THCz-1, 20 µg THCz-40, 80 µg THCz-39, 100 µg THCz-5 spotted on agar
B. subtilis 168 = assay: Bacterial cell wall integrity assay; assay type: cell-based, Bacillus subtilis; conditions: 30 min exposure; phase-contrast microscopy
PBP2 = assay: PBP2-catalyzed transglycosylation of lipid II in vitro; assay type: biochemical, S. aureus; conditions: compared to THCz-1 and THCz-40
S. pneumoniae T4 = assay: Lysis and killing kinetics; conditions: THCz-1 5.1 µg/mL, penicillin G 0.06 μg/mL, tetracycline 2 μg/mL

Row | Compound | MIC (S. pneumoniae) | IC50 [1] | induction of the cell wall responsive reporter strain [4] | cell shape deformations / cell membrane blebbing (B. subtilis 168) | also measured
1 | c1ccc(CCOC2CCCc3c2[nH]c2ccccc32)cc1 (centres unmarked) [THCz-5] | > 100 µM and > 29.1 µg/mL | 141 µM and 41 µg/mL | but not THCz-5 | – | delocalization of GFP-MinD (membrane depolarization) (B. subtilis GFP-MinD): MinD delocalization was also observed; increase of IC50 (cytotoxicity) ([2]; THCz-5 vs. THCz-19): about sixfold; induction of PliaI-lux bioluminescence (LiaRS stress response) [3]: except for the inactive analog THCz-5
2 | c1ccc(CCNC2CCCc3c2oc2ccc(-c4ccccc4)cc32)cc1 (centres unmarked) [THCz-6] | 50 µM and 18.4 µg/mL | 134 µM and 49.3 µg/mL | – | – | increase of IC50 (cytotoxicity) ([2]; THCz-6 vs. THCz-2): about sevenfold
3 | c1ccc(CCNC2CCCc3c2[nH]c2ccccc32)cc1 (centres unmarked) [THCz-19] | 6.3 µM and 1.9 µg/mL | 22.2 µM and 6.8 µg/mL | – | – | –
4 | Cc1ccc2[nH]c3c(c2c1)CCCC3NCCc1ccc(O)cc1 (centres unmarked) [THCz-39] | 6.3 µM to 12.5 µM and 2 µg/mL to 4 µg/mL | 33.4 µM and 10.7 µg/mL | specifically induced | induced characteristic cell shape deformations | reduction in MIC in comparison to THCz-1 (S. pneumoniae): twofold to fourfold; higher concentration required for full inhibition of the PBP2-catalyzed reaction (PBP2): fourfold
5 | Cc1ccc2[nH]c3c(c2c1)CCCC3NCCc1ccc(Br)cc1 (centres unmarked) [THCz-40] | 6.3 µM and 2.4 µg/mL | 28 µM and 10.7 µg/mL | specifically induced | induced characteristic cell shape deformations | reduction in MIC in comparison to THCz-1 (S. pneumoniae): twofold to fourfold
6 | CN(C)[C@@H]1C(O)=C(C(N)=O)C(=O)[C@@]2(O)C(O)=C3C(=O)c4c(O)cccc4[C@@](C)(O)[C@H]3C[C@@H]12 [Tet, tetracycline] | – | – | – | – | lysis kinetics (S. pneumoniae T4): growth-inhibitory phenotype without any prominent lysis
7 | CN[C@H](CC(C)C)C(=O)N[C@H]1C(=O)N[C@@H](CC(N)=O)C(=O)N[C@H]2C(=O)N[C@H]3C(=O)N[C@H](C(=O)N[C@H](C(=O)O)c4cc(O)cc(O)c4-c4cc3ccc4O)[C@H](O)c3ccc(c(Cl)c3)Oc3cc2cc(c3O[C@@H]2O[C@H](CO)[C@@H](O)[C@H](O)[C@H]2O[C@H]2C[C@](C)(N)[C@H](O)[C@H](C)O2)Oc2ccc(cc2Cl)[C@H]1O [vancomycin] | – | – | – | Membrane blebbing was also observed | –
8 | bacitracin | – | – | – | Membrane blebbing was also observed | –
9 | nisin (ITSISLCTPGCKTGALMGCNMKTATCHCSIHVSK; not fully specified; Lantibiotic nisin-A; UniProt P13068 24-57, looked up) | – | – | – | Membrane blebbing was also observed | –
